# Substitutions are numbered along the chain they refer to.
# B1: wild-type rMASP-1 (^444KLMAR^448): recombinant wild-type MASP-1, a serine protease from the complement system, containing 444KLMAR448 (protein, UniProt P48740 20-699, looked up)
# Mannan-binding lectin serine …: HTVELNNMFGQIQSPGYPDSYPSDSEVTWNITVPDGFRIKLYFMHFNLESSYLCEYDYVKVETEDQVLATFCGRETTDTEQTPGQEVVLSPGSFMSITFRSDFSNEERFTGFDAHYMAVDVDECKEREDEELSCDHYCHNYIGGYYCSCRFGYILHTDNRTCRVECSDNLFTQRTGVITSPDFPNPYPKSSECLYTIELEEGFMVNLQFEDIFDIEDHPEVPCPYDYIKIKVGPKVLGPFCGEKAPEPISTQSHSVLILFHSDNSGENRGWRLSYRAAGNECPELQPPVHGKIEPSQAKYFFKDQVLVSCDTGYKVLKDNVEMDTFQIECLKDGTWSNKIPTCKIVDCRAPGELEHGLITFSTRNNLTTYKSEIKYSCQEPYYKMLNNNTGIYTCSAQGVWMNKVLGRSLPTCLPVCGLPKFSRKLMARIFNGRPAQKGTTPWIAMLSHLNGQPFCGGSLLGSSWIVTAAHCLHQSLDPEDPTLRDSDLLSPSDFKIILGKHWRLRSDENEQHLGVKHTTLHPQYDPNTFENDVALVELLESPVLNAFVMPICLPEGPQQEGAMVIVSGWGKQFLQRFPETLMEIEIPIVDHSTCQKAYAPLKKKVTRDMICAGEKEGGKDACAGDSGGPMVTLNRERGQWYLVGTVSWGDDCGKKDRYGVYSYIHHNKDWIQRVTGVRN
# B2: mutated rMASP-1 (^444DDDDK^448): recombinant MASP-1 in which 444KLMAR448 was substituted by DDDDK (SEQ ID NO: 4), activated version (protein, UniProt P48740 20-699, looked up, variant K444D L445D M446D A447D R448K)
# Mannan-binding lectin serine …: B1 Mannan-binding lectin serine … with K425D, L426D, M427D, A428D, R429K
# modifications: activated
# B3: zymogen mutated rMASP-1: zymogen version of the mutated rMASP-1 (444DDDDK448) (protein, UniProt P48740 20-699, looked up, variant K444D L445D M446D A447D R448K)
# pro-form: B1 Mannan-binding lectin serine … with K425D, L426D, M427D, A428D, R429K
# modifications: pro-form zymogen, enterokinase site
# Legend:
# A. fumigatus conidia [1] = test: Biotin-tagged 30 amino acid peptide binding to heat-inactivated conidia, FITC-streptavidin flow cytometry; parameters: species or system Aspergillus fumigatus; settings: for peptide binding to A. fumigatus conidia: 5 μg/ml N-term biotin-tagged peptide, 1×10^7 heat-inactivated conidia/ml
# Method: (§1) A 30 amino acid peptide comprising the KLMAR sequence was generated with an N-terminal biotin-tag. […] 5 μg/ml of the N-term biotin-tagged peptides were incubated with 1×10^7 heat-inactivated conidia/ml from different Aspergillus species and from fungi belonging to the Mucorales order. The peptide binding was subsequently detected with a FITC-coupled streptavidin using flow cytometry (Beckman Coulter, Gallios).
# Three 30 amino acid peptides from the CCP2 domain of MASP-1 were generated with an N-terminal biotin-tag. CCP2 Ctrl.Pep1: […], CCP2 Ctrl.Pep2: […], CCP2 Ctrl.Pep3: […]. 5 and 10 μg/ml of the N-term biotin-tagged peptides were incubated with 1×10^7 heat-inactivated A. fumigatus conidia/ml and the peptide binding was detected with a FITC-coupled streptavidin using flow cytometry (BD, Celesta).
# 5 μg/ml of the N-term biotin-tagged peptides with C→S mutations at position 7 (C7S), position 11 (C11S) and both positions (C7S+C11S) were incubated with 1×10^7 heat-inactivated A. fumigatus conidia/ml. The peptide binding was subsequently detected with a FITC-coupled streptavidin using flow cytometry (BD, Celesta).
# 5 μg/ml of the N-term biotin-tagged MASP-1 peptide were incubated with 1×10^7 heat-inactivated A. fumigatus conidia/ml in barbital buffer (containing Ca2+) with or without 20 mM EDTA that chelates the calcium. The peptide binding was subsequently detected with a FITC-coupled streptavidin using flow cytometry (Beckman Coulter, Gallios).
# The binding of the MASP-1 peptide was compared to the binding of a MASP-3 peptide covering the same protein region and thus having partly overlapping amino acid sequences. MASP-1 peptide: […] (SEQ ID NO: 1). MASP-3 peptide: […] (SEQ ID NO: 3). 5 μg/ml of the N-term biotin-tagged peptides were incubated with 1×10^7 heat-inactivated A. fumigatus conidia/ml. The peptide binding was subsequently detected with a FITC-coupled streptavidin using flow cytometry (Beckman Coulter, Gallios).
# HMEC-1 cells = test: Peptide binding to human cells, flow cytometry; settings: 5 μg/ml; 1×10^7 cells/ml
# Method: (§2) 5 μg/ml of the N-term biotin-tagged MASP-1 peptide was incubated with THP-1 and HMEC-1 cells (1×10^7 cells/ml). The peptide binding was subsequently detected with a FITC-coupled streptavidin using flow cytometry (Beckman Coulter, Gallios).
# THP-1 cells = test: Peptide binding to human cells, flow cytometry; settings: 5 μg/ml; 1×10^7 cells/ml
# Method: as §2
# A. niger = test: Biotin-tagged peptide binding to heat-inactivated conidia, flow cytometry; parameters: species or system Aspergillus niger; settings: 5 μg/ml
# Method: as §1
# A. terreus = test: as above; parameters: species or system Aspergillus terreus; settings: 5 μg/ml
# Method: as §1
# A. flavus = test: as above; parameters: species or system Aspergillus flavus; settings: 5 μg/ml
# Method: as §1
# Lichtemia corymbifera = test: as above; settings: 5 μg/ml
# Method: as §1
# Mucor circinelloides = test: as above; settings: 5 μg/ml
# Method: as §1
# Rhizopus arrhizus = test: as above; settings: 5 μg/ml
# Method: as §1
# Aspergillus fumigatus = test: Recombinant MASP-1 binding to A. fumigatus growth stages, fluorescence microscopy; settings: 5 μg/ml, resting conidia, swollen conidia, germ tubes and hyphae
# Method: MASP-1 binding was tested on the different growth stages of A. fumigatus. First, the A. fumigatus conidia were incubated on microscopy glass slides for 0, 4, 8 and 16 hours to obtain resting conidia, swollen conidia, germ tubes and hyphae. Recombinant MASP-1 was then added in a concentration of 5 μg/ml and binding was detected with a pan anti-MASP-1/-3/MAP-1 monoclonal antibody 8B3 and Alexa fluor 488-coupled goat anti-mouse antibody. […] This is very surprising since until now, MASP-1 is known only to interact with endogenous pattern recognition molecules (PRMs) and not so-called pathogen-associated molecular patterns (PAMPs).
# MASP-1, a serine protease from the complement system, binds directly to various pathogenic fungi, for example, Aspergillus fumigatus and this knowledge can be utilized to design a targeted antifungal compound. MASP-1 binding was tested on the different growth stages of A. fumigatus. First, the A. fumigatus conidia were incubated on microscopy glass slides for 0, 4, 8 and 16 hours to obtain resting conidia, swollen conidia, germ tubes and hyphae. Recombinant MASP-1 was then added in a concentration of 5 μg/ml and binding was detected with a pan anti-MASP-1/-3/MAP-1 monoclonal antibody 8B3 and Alexa fluor 488-coupled goat anti-mouse antibody.
# A. fumigatus conidia [2] = test: rMASP-1 (wild-type/mutated) binding to heat-inactivated conidia, flow cytometry; parameters: species or system Aspergillus fumigatus; settings: 5 μg/ml, 1×10^7 heat-inactivated conidia/ml
# Method: A. fumigatus conidia were heat-inactivated (15 min 121° C.) to eliminate contamination in the laboratory. 1×10^7 conidia/ml were incubated with 5 μg/ml recombinant wild-type MASP-1 (^444KLMAR^448) or mutated rMASP-1 (^444DDDDK^448). The binding of MASP-1 was detected using 10 μg/ml of a pan anti-MASP-1/-3/MAP-1 monoclonal antibody 8B3 followed by a FITC-conjugated goat anti-mouse polyclonal antibody. Binding was measured as the mean fluorescence intensity using flow cytometry (Beckman Coulter, Gallios).
# The experiment in this example 2A was performed using the method as described in example 2.
molecule,measurement,setting,value
"MASP-3 peptide: 30 aa MASP-3 peptide covering the same protein region, GRSLPTCLPECGQPSRSLPSLVKRIIGGRN (SEQ ID NO: 3) (listed as Homo sapiens) [reference compound]",peptide binding to A. fumigatus conidia,A. fumigatus conidia [1],did not bind
same,peptide binding to HMEC-1 endothelial cell line,HMEC-1 cells,Neither of the 30 aa MASP peptides bind
same,peptide binding to THP-1 monocytic cell line,THP-1 cells,Neither of the 30 aa MASP peptides bind
MASP-1 peptide: 30 amino acid MASP-1 peptide GRSLPTCLPVCGLPKFSRKLMARIFNGRPA (SEQ ID NO: 1),peptide binding to A. fumigatus conidia,A. fumigatus conidia [1],successfully bound
same,peptide binding to A. fumigatus conidia with calcium,"A. fumigatus conidia [1]; 5 μg/ml, barbital buffer (containing Ca2+) without EDTA",bound equally well
same,peptide binding to A. fumigatus conidia without calcium,"A. fumigatus conidia [1]; 5 μg/ml, barbital buffer with 20 mM EDTA",bound equally well
same,"peptide binding to A. fumigatus conidia (median fluorescence intensity), CCP2 domain comparison","A. fumigatus conidia [1]; 5 and 10 μg/ml, heat-inactivated conidia, BD Celesta",bound
same,peptide binding to A. niger conidia,A. niger,successfully bound
same,peptide binding to A. terreus conidia,A. terreus,successfully bound
same,peptide binding to A. flavus conidia,A. flavus,successfully bound
same,peptide binding to Lichtemia corymbifera conidia,Lichtemia corymbifera,successfully bound
same,peptide binding to Mucor circinelloides conidia,Mucor circinelloides,successfully bound
same,peptide binding to Rhizopus arrhizus conidia,Rhizopus arrhizus,successfully bound
same,peptide binding to HMEC-1 endothelial cell line,HMEC-1 cells,did not show any binding
same,peptide binding to THP-1 monocytic cell line,THP-1 cells,did not show any binding
B1,recombinant MASP-1 binding to A. fumigatus growth stages,Aspergillus fumigatus,binding was detected for all growth stages
same,binding of rMASP-1 to A. fumigatus conidia (mean fluorescence intensity),A. fumigatus conidia [2],binds
B2,binding of rMASP-1 to A. fumigatus conidia (mean fluorescence intensity),A. fumigatus conidia [2],did not bind
same,binding of rMASP-1 to A. fumigatus conidia (mean fluorescence intensity),A. fumigatus conidia [2]; listed as active mutated rMASP-1,Neither the active nor zymogen mutated rMASP-1 (44^4DDDDK^448) bound
B3,binding of rMASP-1 to A. fumigatus conidia (mean fluorescence intensity),A. fumigatus conidia [2],Neither the active nor zymogen mutated rMASP-1 (44^4DDDDK^448) bound

# — US20250304939A1, “TAILORED ANTI-FUNGAL DRUGS AND TOOLS TO DIAGNOSE INVASIVE FUNGAL INFECTIONS” (priority 2022, published 2025)
